Data as given in patent US4368261A, “Method and reagent for the determination of triglycerides” (priority 1979, dated 1983).

Assays:
Test in all cases: Stability of glycerokinase in the presence of dichlorophenol at 25° C. (Table 2)
Assay type in all cases: biochemical
[1] = target: glycerokinase (GK) from Bacillus stearothermophilis (Geobacillus stearothermophilus, UniProt A0ACH1EBP7)
Excerpt: (§1) It is known that Bacillus stearothermophilis contains a glycerokinase (see J. Appl. Bac., 38, 301-304/1975). However, it could not be deduced from this that this glycerokinase would display a good stability towards the mentioned group of activators which would permit its use together with these activators.

[2] = target: T1, glycerokinase (GK) from Escherichia coli (commercially available) (Escherichia coli, UniProt P0A6F3)
T1 construct: purchased
Excerpt: as §1

[3] = test system: glycerokinase (GK, E.C. 2.7.1.30) from Candida mycoderma
Excerpt: as §1

## dichlorophenol
[1]; 2 mM dichlorophenol
  residual activity after 30 min.: 100%
  residual activity after 60 min.: 100%
[1]; 5 mM dichlorophenol
  residual activity after 30 min.: 100%
  residual activity after 60 min.: 100%
[2]; 2 mM dichlorophenol
  residual activity after 30 min.: 93%
  residual activity after 60 min.: 87%
[2]; 5 mM dichlorophenol
  residual activity after 30 min.: 81%
  residual activity after 60 min.: 58%
[3]; 2 mM dichlorophenol
  residual activity after 30 min.: 68%
  residual activity after 60 min.: 56%
[3]; 5 mM dichlorophenol
  residual activity after 30 min.: 18%
  residual activity after 60 min.: 7%
